Experimental data reported in patent US20220143103A1, “COMPOSITION FOR PREVENTING OR TREATING NEUROINFLAMMATORY DISORDERS, COMPRISING BEE VENOM EXTRACT AS ACTIVE INGREDIENT” (priority 2019, published 2022).

Legend:
Format in all cases: cell-based
[1] = test system: iNOS, COX-2, IBA-1 in BV-2 cells; assay: Western blot of iNOS, COX-2, IBA-1 in LPS-treated BV-2 cells; conditions: BV-2, LPS 1 μg/mL
Procedure: To detect target proteins, specific antibodies to iNOS, IBA-1, GFAP, APP and BACE1 (1:1000; Abcam, Inc., Cambridge, UK), COX-2 (1:1000; Novus Biologicals, Inc., CO, USA), c-Jun N-terminal kinase (JNK), extracellular signal-regulated kinase (ERK) 1/2, p-p38 and p38 ([…]; Cell signaling Technology, Inc., MA, USA), p-STAT3, STAT3, p-ERK1/2, p-JNK, and β-actin (1:200; Santa Cruz Biotechnology Inc., Santa Cruz, Calif., USA) were used.
(§1) Blots were incubated with corresponding conjugated secondary antibodies such as anti-mouse, anti-rabbit and anti-goat obtained from Santa Cruz Biotechnology Inc. (Santa Cruz, Calif., USA). Immunoreactive proteins were detected with an enhanced chemiluminescence Western blotting detection system.
(§2) Microglia BV-2 was cultured and treated simultaneously with LPS (1 μg/mL) or Aβ1-42 (2.5 μM) and various concentrations of bvPLA2 (0.01, 0.1, 1 μg/mL) dissolved in PBS. Cells were harvested after 24 hours to measure cell viability, Nitric Oxide concentration, and a level of pro-inflammatory cytokines.

[2] = test system: NF-κB (p65, p50, p-IκBα) in BV-2 cells; assay: Western blot of NF-κB subunits and p-IκBα in LPS-treated BV-2 cells; conditions: BV-2, LPS 1 μg/mL, bvPLA2 100 ng/mL, NF-κB inhibitor; FIG. 7B
Procedure: as §1, §2
To determine whether or not bvPLA2 affects inhibition of NF-κB translocation, the level of the NF-κB subunit in the nucleus of BV-2 cells was measured by Western blot.

[3] = test system: TNF-α, IL-1β, IL-6, IL-4, TGF-β in BV-2 cells; assay: qRT-PCR of cytokines in LPS-treated BV-2 cells; conditions: BV-2, LPS 1 μg/mL
Procedure: Pro-inflammatory and anti-inflammatory cytokine levels were measured by quantitative reverse transcription polymerase chain reaction (qRT-PCR). Total RNA was extracted from hippocampal tissue using RiboEX (Geneall biotechnology, Seoul, Korea), and cDNA was synthesized using a High-Capacity cDNA Reverse Transcription kit (Thermo Scientific, Waltham, Mass., USA).
qRT-PCR was performed on a 7500 real-time PCR system (Applied Biosystems, Foster City, Calif., USA) for custom designed primers, and β-actin was used as a house-keeping control using a HiPi Real-Time PCR SYBR green master mix (ELPIS biotech, Daejeon, Korea).
A cycling condition consisting of an initial denaturation step of 3 minutes at 94° C., a denaturation step of 30 seconds at 94° C., an annealing step of 30 seconds at 60° C., and an extension step of 1 minute at 72° C., was continued until 40 cycles. Values obtained for target gene expression were normalized to β-actin and quantified for expression in control samples.
Each sample was performed with the primers in Table 2 below.
as §2

β-secretase = β-secretase activity assay in LPS-treated BV-2 cells; conditions: BV-2, LPS 1 μg/mL, Stattic 1 μM, bvPLA2 1 μg/mL, 24 h; FIG. 21B
Procedure: β-secretase activity in the mouse brain was determined using a commercially available β-secretase activity assay kit (Abcam, Inc., Cambridge, Mass., USA). A solubilized membrane was extracted from brain tissues using a β-secretase extraction buffer, incubated on ice for 1 hour, and centrifuged at 5000×g for 10 minutes at 4° C. to collect supernatant.
A total of 50 μL of sample (100 μg of total protein) or blank (50 μL of β-secretase extraction buffer) was added to each well (96-well plate), then 50 μL of 2× reaction buffer and 2 μL of β-secretase substrate were incubated for 1 hour in a dark room at 37° C. Fluorescence was read at excitation and emission wavelengths of 335 and 495 nm, respectively, using a fluorescence spectrometer (Gemini EM; Molecular Devices, CA, USA).
as §2

Aβ1-42 in BV-2 cells = assay: Aβ1-42 ELISA in LPS-treated BV-2 cells; conditions: BV-2, LPS 1 μg/mL, Stattic 1 μM, 24 h
Procedure: Lysates of brain tissue were obtained through a protein extraction buffer containing protease inhibitors. Aβ1-42 and Aβ1-40 levels were measured using the specific mouse β-amyloid peptide 1-42 enzyme-linked immunosorbent assay (ELISA) kit (CSB-E10787m; CUSABIO, Houston, USA) and mouse β-amyloid peptide 1-40 ELISA kit (CSB-E08300m; CUSABIO, Houston, USA), respectively.
To investigate the effect of bvPLA2 on amyloidogenesis in vitro, BV-2 cells were treated with LPS and various concentrations of bvPLA2 (0.01, 0.1, 1 μg/mL) for 24 hours. Aβ1-42 levels in BV-2 cells were determined by ELISA.
The inhibitory effects of a STAT3 inhibitor (Stattic) and the bee venom extracts on amyloid production and neuroinflammation were tested in BV-2 cells. To determine the combination effect of bvPLA2 and Stattic on amyloidogenesis and neuroinflammation in vitro, BV-2 microglia were treated with LPS (1 μg/m L), Stattic (1 μM), or bvPLA2 (1 μg/mL) for 24 h.

SMILES: Cc1ccc(S(=O)(=O)/C=C/C#N)cc1 [Bay 11-7802]
- levels of iNOS and COX-2 (Western blot) ([1]; bvPLA2 100 ng/mL, NF-κB inhibitor, FIG. 7A): decreased
- levels of p-IκBα, p65, and p50 [2]: alleviated
- expression levels of TNF-α, IL-1β, and IL-6 (qRT-PCR) ([3]; bvPLA2 100 ng/mL, NF-κB inhibitor, FIG. 7C): decreased

SMILES: O=[N+]([O-])c1ccc2c(c1)S(=O)(=O)C=C2 [Stattic]
- intracellular levels of iNOS and COX-2 (Western blot) ([1]; Stattic 1 μM, bvPLA2 1 μg/mL, 24 h, FIG. 21D): decreased
- β-secretase activity (β-secretase): decreased
- expression levels of TNF-α, IL-1β, and IL-6 (qRT-PCR) ([3]; Stattic 1 μM, bvPLA2 1 μg/mL, 24 h, FIG. 21E): decreased
- Aβ1-42 level (ELISA) (Aβ1-42 in BV-2 cells): 264.2 ± 4.384 pg/mg
